Experimental data: US20110152079A1, “Pesticidal Compound Mixtures” (BAYER CROPSCIENCE AG, priority 2009, published 2011)

How the values were obtained:
Type in all cases: in vivo
[1] = tested on: Myzus persicae; assay: Myzus persicae - Test (sprayed cabbage leaves); details: single compound; for mortality at 500 g/ha / Mortality in % after 6d: 500 g/ha
Method: (§1) Solvent: 78 parts by weight of acetone • • 1.5 parts by weight of dimethylformamide Emulsifier: 0.5 parts by weight of alkylaryl polyglycole-ether
(§2) To produce a suitable preparation of active compound, 1 part by weight of active compound is mixed with the stated amount of solvent and emulsifier, and the concentrate is diluted with emulsifier-containing water to the desired concentration.
Cabbage leaves (Brassica oleracea) which are heavily infested by the green peach aphid (Myzus persicae) are treated by being sprayed with the preparation of the active compound at the desired concentration. After the specified period of time, the mortality in % is determined 100% means that all the aphids have been killed; 0% means that none of the aphids have been killed.

[2] = tested on: Tetranychus urticae; assay: Tetranychus urticae - Test (OP-resistant, bean plants); details: 144 h, single compound, 6 d, read-out: Mortality in % after 6d
Method: as §1, §2
Bean plants (Phaseolus vulgaris) which are heavily infested with all stages of the two-spotted spider mite (Tetranychus urticae) are treated by being sprayed with the preparation of the active compound at the desired concentration.
After the specified period of time, mortality in % is determined 100% means that all the spider mites have been killed; 0% means that none of the spider mites have been killed.

[3] = tested on: Spodoptera frugiperda; assay: Spodoptera frugiperda - Test (sprayed cabbage leaves); details: 500 g/ha, single compound
Method: as §1, §2
Cabbage leaves (Brassica oleracea) are treated by being sprayed with the preparation of the active compound at the desired concentration and are infested with larvae of the fall army worm (Spodoptera frugiperda) as long as the leaves are still moist.
After the specified period of time, the mortality in % is determined 100% means that all the caterpillars have been killed; 0% means that none of the caterpillars have been killed.

[4] = tested on: Phaedon cochleariae; assay: Phaedon cochleariae Larven - Test (sprayed cabbage leaves); details: 144 h, single compound, 6 d, read-out: Mortality in % after 6d
Method: as §1, §2
Cabbage leaves (Brassica oleracea) are treated by being sprayed with the preparation of the active compound at the desired concentration and are infested with larvae of the mustard beetle (Phaedon cochleariae) as long as the leaves are still moist.
After the specified period of time, the mortality in % is determined 100% means that all the beetle larvae have been killed; 0% means that none of the beetle larvae have been killed.

[5] = Myzus persicae, 144 h, 6 d, read-out: Mortality in % after 6d

Which mortality at 500 g/ha [1, 5] does the source give for `COC(=O)C(C)N(C(=O)Cc1ccccc1)c1c(C)cccc1C` (stereo not shown) [Benalaxyl] here?
Its mortality at 500 g/ha is 0%.

`CC1(C(=O)Nc2ccc(O)c(Cl)c2Cl)CCCCC1` [Fenhexamid] was tested. Which mortality at 500 g/ha [2] did it give?
Its mortality at 500 g/ha is 0%.

And the mortality at 500 g/ha [1, 5]?
The mortality at 500 g/ha was 0%.

Which “Mortality in % after 6d” value [1] does the source give for `O=C(NCc1ncc(C(F)(F)F)cc1Cl)c1c(Cl)cccc1Cl` [Fluopicolide] here?
Its value is 0%.

How did the “Mortality in % after 6d” value [1] turn out when `CCO[PH](=O)O` [Fosetyl AL] was run?
Its value is 0%.

For `N#Cc1ccccc1NC(=O)c1snc(Cl)c1Cl` [Isotianil], which “Mortality in % after 6d” value [3] is on record?
The value was 0%.

How did the mortality at 500 g/ha ([4]; 500 g/ha) turn out when `COCC(=O)N(c1c(C)cccc1C)C(C)C(=O)OC` (stereo not shown) [Metalaxyl] was run?
Its mortality at 500 g/ha is 0%.

How did the mortality at 500 g/ha [1, 5] turn out when `CCCN(CCOc1c(Cl)cc(Cl)cc1Cl)C(=O)n1ccnc1` [Prochloraz] was run?
The mortality at 500 g/ha was 0%.

With `CN(C)C(=S)SSC(=S)N(C)C` [Thiram] as the molecule, how does the mortality at 500 g/ha [1, 5] read?
The mortality at 500 g/ha was 0%.

How did the mortality at 500 g/ha [2] turn out when `Cc1ccc(N(SC(F)(Cl)Cl)S(=O)(=O)N(C)C)cc1` [Tolyfluanid] was run?
The mortality at 500 g/ha was 0%.

Which results are given for `CC1(C)[C@H](C=C(Cl)Cl)[C@H]1C(=O)OCc1c(F)c(F)cc(F)c1F` [Transfluthrin]?
mortality at 100 g/ha ([2]; 100 g/ha): 0%; mortality at 20 g/ha ([4]; 20 g/ha): 50%; mortality at 20 g/ha ([1]; Myzus persicae, 144 h, 20 g/ha, 6 d, read-out: Mortality in % after 6d): 0%
